Data: paper PMC11182235 (Frontiers in Ophthalmology, 2023)
Entries after “also recorded” stand apart in the source; their conditions may differ. Read-outs that look alike come from different tables or passages of the source.

Tests used:
adult porcine RGCs = conditions: cited from earlier work
isolated rat RGCs = conditions: cited from earlier work
[1] = test system: isolated retinal ganglion cells; format: cell-based, porcine
[2] = test system: isolated retinal ganglion cells; conditions: cited from earlier work
RGC = conditions: in vivo; cited from earlier work
α4 nAChR = α4 nAChR (Sus scrofa, UniProt A0A286ZKF4+A0A287BFD8); format: binding, porcine; conditions: for Ki: read-out: Mean Ki against [3H]-cytisine
α4 nAChR, sequence (A0A286ZKF4 31-595 limits assumed): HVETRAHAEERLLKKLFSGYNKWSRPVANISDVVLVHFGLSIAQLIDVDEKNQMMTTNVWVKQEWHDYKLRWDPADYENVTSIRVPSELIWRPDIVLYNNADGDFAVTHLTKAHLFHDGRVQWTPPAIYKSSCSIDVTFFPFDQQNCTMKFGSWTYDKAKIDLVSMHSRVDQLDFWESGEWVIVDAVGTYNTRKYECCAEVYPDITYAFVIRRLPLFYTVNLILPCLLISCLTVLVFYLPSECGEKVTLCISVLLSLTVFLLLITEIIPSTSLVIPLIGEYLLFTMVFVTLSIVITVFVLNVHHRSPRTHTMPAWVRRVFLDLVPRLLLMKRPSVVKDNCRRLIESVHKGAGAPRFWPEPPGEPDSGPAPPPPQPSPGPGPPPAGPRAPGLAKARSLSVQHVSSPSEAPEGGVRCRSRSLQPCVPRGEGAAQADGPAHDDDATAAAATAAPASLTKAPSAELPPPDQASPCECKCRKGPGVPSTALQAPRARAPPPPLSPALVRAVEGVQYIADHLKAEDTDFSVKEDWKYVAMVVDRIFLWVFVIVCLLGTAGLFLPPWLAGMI
α4 nAChR, sequence (A0A287BFD8 26-502 limits assumed): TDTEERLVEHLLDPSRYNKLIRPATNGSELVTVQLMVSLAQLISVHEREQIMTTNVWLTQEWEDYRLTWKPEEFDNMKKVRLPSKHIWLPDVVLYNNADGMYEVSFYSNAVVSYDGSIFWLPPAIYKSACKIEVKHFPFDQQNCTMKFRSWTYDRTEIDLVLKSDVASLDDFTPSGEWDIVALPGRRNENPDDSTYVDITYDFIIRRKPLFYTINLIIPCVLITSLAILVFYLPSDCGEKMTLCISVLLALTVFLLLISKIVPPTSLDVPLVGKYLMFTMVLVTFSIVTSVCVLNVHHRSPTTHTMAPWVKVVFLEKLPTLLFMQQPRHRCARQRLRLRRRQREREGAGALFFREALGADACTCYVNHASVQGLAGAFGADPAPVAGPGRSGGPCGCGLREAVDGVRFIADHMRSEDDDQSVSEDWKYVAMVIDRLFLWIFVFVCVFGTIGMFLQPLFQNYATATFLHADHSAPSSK

α7 nicotinic receptors = conditions: cited from earlier work
α4β2 nicotinic receptors = conditions: cited from earlier work
α7 nAChR = α7 nAChR (Sus scrofa, UniProt F1SNR6); assay: biochemical; format: binding, porcine
α7 nAChR, sequence (F1SNR6 20-499 limits assumed): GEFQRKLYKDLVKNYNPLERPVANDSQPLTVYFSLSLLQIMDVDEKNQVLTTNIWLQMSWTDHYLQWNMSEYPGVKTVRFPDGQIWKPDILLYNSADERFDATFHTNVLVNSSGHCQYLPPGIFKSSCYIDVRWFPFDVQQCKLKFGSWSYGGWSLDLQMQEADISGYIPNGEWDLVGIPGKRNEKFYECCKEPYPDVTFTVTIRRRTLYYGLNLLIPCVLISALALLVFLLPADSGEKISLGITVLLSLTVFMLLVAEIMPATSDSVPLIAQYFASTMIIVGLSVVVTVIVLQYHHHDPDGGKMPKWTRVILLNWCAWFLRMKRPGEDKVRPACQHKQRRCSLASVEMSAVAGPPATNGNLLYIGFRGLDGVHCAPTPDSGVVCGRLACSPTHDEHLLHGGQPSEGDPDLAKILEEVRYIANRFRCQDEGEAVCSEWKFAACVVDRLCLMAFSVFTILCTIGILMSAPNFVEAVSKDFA

α3 nAChR = α3 nAChR (Sus scrofa, UniProt A0A287A7Z4); format: binding, porcine; conditions: read-out: Mean Ki against [3H]-epibatidine
α3 nAChR, sequence (A0A287A7Z4 30-503 limits assumed): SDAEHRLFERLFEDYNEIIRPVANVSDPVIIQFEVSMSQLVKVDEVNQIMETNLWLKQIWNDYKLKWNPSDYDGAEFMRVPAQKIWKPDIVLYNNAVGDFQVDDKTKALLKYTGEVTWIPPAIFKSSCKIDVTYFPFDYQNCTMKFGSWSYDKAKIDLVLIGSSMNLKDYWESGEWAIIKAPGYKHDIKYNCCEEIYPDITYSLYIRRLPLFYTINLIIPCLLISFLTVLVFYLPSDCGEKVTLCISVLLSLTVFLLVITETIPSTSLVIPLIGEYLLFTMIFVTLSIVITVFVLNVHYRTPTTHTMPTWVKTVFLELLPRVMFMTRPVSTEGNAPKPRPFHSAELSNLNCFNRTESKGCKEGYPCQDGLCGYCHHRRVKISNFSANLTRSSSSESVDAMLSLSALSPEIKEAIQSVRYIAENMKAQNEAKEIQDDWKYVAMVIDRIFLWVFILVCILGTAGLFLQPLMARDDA

retinal ganglion cells = format: cell-based, rat
α3β4 receptors = conditions: cited from earlier work
α7 nAChRs = conditions: cited from earlier work
[3] = rat retinal slice, RGCs, fluo-4 fluorescence, n = 4

CC(=O)OCC[N+](C)(C)C [ACh, acetylcholine]
Reduction of glutamate-induced excitotoxicity (adult porcine RGCs): significantly reduced

CCN1C[C@]2(COC(=O)c3ccccc3N3C(=O)C[C@H](C)C3=O)CC[C@H](OC)[C@@]34[C@@H]5C[C@H]6[C@H](OC)[C@@H]5[C@](O)(C[C@@H]6OC)[C@@](O)([C@@H](OC)[C@H]23)[C@@H]14 [MLA, Methyllycaconitine]
Block of neuroprotective effect of 100 nM PNU-282987 against glutamate-induced toxicity (isolated rat RGCs): blocked; also recorded: inhibited the protective effects

O=C(N[C@H]1CN2CCC1CC2)c1ccc(Cl)cc1 [PNU-282987]
Neuroprotection against glutamate-induced excitotoxicity [1]: effective in the low-to-mid nanomolar concentration range | Cell numbers in porcine retinal cell culture relative to control [2]: increased numbers of cells | Cell numbers in isolated rat RGC culture relative to control (isolated rat RGCs): increased numbers of cells | RGC cell numbers in the intact rat (RGC): increase in RGC cell numbers

C[N+](C)(C)CCO [choline]
Reduction of glutamate-induced excitotoxicity (adult porcine RGCs): significantly reduced

Clc1ccc(C2CC3CCC2N3)cn1 (centres unmarked) [epibatidine]
Ki (α4 nAChR): 0.1 ± 0.03 nM | Ki (α7 nicotinic receptors): 233 nM | Ki (α4β2 nicotinic receptors): 0.02 nM | inhibition at 100 µM (α7 nAChR; read-out: Percent inhibition of [125I]-α-BTX binding): 3% | Ki (α3 nAChR): 0.7 ± 0.05 nM | Threshold dose, calcium response (retinal ganglion cells): 1 nM

CN1CCC[C@H]1c1cccnc1 [nicotine]
Ki (α4 nAChR): 20 ± 0.7 nM | Protection against glutamate-induced excitotoxicity at higher levels ([1]; additional preliminary and published experiments ([47])): drop-off in protection at higher levels | Ki (α7 nAChR): 300000 ± 22000 nM | Concentration at which toxicity reported (adult porcine RGCs): 50 µM | Reduction of glutamate-induced excitotoxicity (adult porcine RGCs): significantly reduced | Ki (α3 nAChR): 220 ± 0.6 nM | Saturating dose, calcium response (retinal ganglion cells; [3]): 20 µM | Threshold dose, calcium response (retinal ganglion cells; [3]): 2000 nM

α-Bungarotoxin [α-BTX]
Percent inhibition of [3H]-cytisine binding (α4 nAChR; 0.1 µM): 3% ± 3 | Effect of antagonist on neuroprotection by PNU-282987 [1]: reduction in the neuroprotective effects | IC50 (α3β4 receptors): > 3000 nM | Ki (α7 nAChR; read-out: Mean Ki against [125I]-α-BTX): 170 ± 40 nM | IC50 (α7 nAChRs): 1.6 nM
